# Assay results taken from US3932664A, “Substituted phenoxyalkyl quaternary ammonium compounds as antiarrhythemic agents” (priority 1974, dated 1976).
# Legend:
# [1] = acute oral toxicity in rats; conditions: rat, in vivo, single oral dose
# Description: (§1) An aqueous solution of [2-(4-amino-2,6-dibromophenoxy)ethyl]dimethyl (2-methylallyl)ammonium chloride is administered orally to several groups of male and female Sprague-Dawley derived rats and male and female Swiss mice (Cox strain). The compound is administered as single oral dosages in varying amounts, and the animals are held to assess toxicity twenty-four hours after administration of the compound.
# [2] = tested on: electrically induced ventricular fibrillation in dogs; test: threshold for electrically induced ventricular fibrillation in electrically paced dogs; type: in vivo, dog; conditions: intravenous
# [3] = tested on: multifocal ventricular arrhythmias induced by n-hexane and epinephrine in dogs; test: protection against multifocal ventricular arrhythmias induced by n-hexane and epinephrine in dogs; type: in vivo; conditions: dog, intravenous
# Description: [2-(4-Amino-2,6-dibromophenoxy)ethyl]dimethyl-(2-methylallyl)ammonium chloride is employed to alleviate multifocal ventricular arrhythmias induced by administration of n-hexane and epinephrine. In these operations, dogs are anesthetized by intravenous administration of 30 milligrams of pentobarbital sodium per kilogram. Transient ventricular arrhythmias are induced by a modification of the method of Garb and Chenowith, J. Pharmacol. Exp. Ther. 94; 12 (1948) in which the heart is sensitized by intratracheal injection of 0.04 milliliter of n-hexane per kilogram, followed in 15 seconds by rapid intravenous administration of 1-epinephrine bitrate at a dosage rate of 10 micrograms per kilogram. Such procedure produces a transient arrhythmia lasting about 10 seconds. Duration of protection by a test compound is evaluated by repeating the n-hexane and epinephrine challenge periodically and monitoring electrocardiogram and arterial blood pressure. […] When the same compound is administered at a dosage rate of 2 milligrams per kilogram, the duration of protection is found to be greater than 2 hours.
# In similar operations, dosages of 5 to 10 milligrams per kilogram are found to be required to obtain similar antiarrhythmic effects when the known antiarrhythmic agent, quinidine sulfate, is employed as a test compound.
# [4] = acute oral toxicity in mice; conditions: mouse, in vivo, single oral dose
# Description: as §1
# [5] = tested on: arrhythmia after experimental coronary artery occlusion in dogs; test: abnormal complexes after experimental occlusion of the anterior descending coronary artery in dogs; type: in vivo; conditions: dog
# Description: An experimental occlusion of the anterior descending coronary artery is produced in dogs according to the method of Harris, Circulation 1, 1318 (1950). Following surgery the animals are given a penicillin-streptomycin preparation and allowed to recover for 18-24 hours. The animals are given 3 milligrams per kilogram of morphine sulfate as an analgetic and sedative to allow handling. Electrocardiograms are recorded both before and after administration of [2-([…])ethyl]dimethyl-(2-methylallyl)ammonium chloride to the test animals. The incidence of abnormal complexes (premature ventricular contractions and atrioventricular nodal beats) per minute is recorded as a percentage of total beats per minute. In one such operation the test compound is administered by intravenous infusion at rates of 1, 2, 2 and 2 milligrams per kilogram at intervals of 10 to 15 minutes. […] Following the last infusion of test compound the heartbeat rate is observed to have decreased from a rate of over 160 beats per minute prior to the first infusion to about 90-100 beats per minute. The incidence of ectopic beats at this time has decreased from a pre-treatment level of 100 percent abnormal beats per minute to below 60 percent, reaching zero (100 percent normal beats) within about 10 minutes after the last infusion. The lower heartbeat rate and low incidence of abnormal beats (generally 0 to 20 percent of the total beats per minute are abnormal) is found to persist for 2 hours following the last infusion of test compound, at which time the experiment is terminated.
# In similar operations, the same test compound is infused at dosages of 1, 2 and 4 milligrams per kilogram at intervals over a forty minute period. Prior to infusion the incidence of abnormal beats is 100 percent. […] The incidence of abnormal beats is found to remain at zero with occasional brief periods of slight arrhythmia (2-5 percent abnormal beats) for 2.5 hours following the last dosage of the test compound, when recording is terminated.
# In a similar operation the [2-([…])ethyl]dimethyl(2-methylallyl)ammonium chloride is administered orally in gelatin capsules. The test compound is administered in multiple dosages of 30, 30 and 50 milligrams per kilogram over a period of 150 minutes. […] Antiarrhythmic effects continue to be observed until the recording is terminated 140 minutes after the last dose of test compound.
# [6] = blood and heart levels in rabbits after oral and intravenous administration; type: in vivo; conditions: rabbit
# [7] = iv infusion, following the first infusion (1 mg/kg)
compound,measurement,setting,value
"C=C(C)C[N+](C)(C)CCOc1c(Br)cc(N)cc1Br.[Cl-] [Example 1, [2-(4-amino-2,6-dibromophenoxy)ethyl]-dimethyl(2-methylallyl)ammonium chloride]",LD50 at 24 h,[1]; female rats,725 mg/kg
same,LD50 at 24 h,[1]; male rats,758 mg/kg
same,increase in threshold for electrically induced ventricular fibrillation,[2],substantial increases
same,duration of protection,[3]; 2 mg/kg,greater than 2 hours
same,duration of antiarrhythmic effect,[3]; one mg/kg,about 1 hour
same,protection against the arrhythmias,[3]; one mg/kg,excellent protection
same,LD50 at 24 h,[4]; female mice,550 mg/kg
same,LD50 at 24 h,[4]; male mice,560 mg/kg
same,time after last infusion to substantially complete conversion to sinus rhythm,"[5]; infused 1, 2 and 4 mg/kg over forty minutes",eight
same,conversion to sinus rhythm,"[5]; infused 1, 2 and 4 mg/kg over forty minutes, incidence of abnormal beats 100 percent before",substantially complete conversion to sinus rhythm
same,time for which incidence of abnormal beats remains at zero (with occasional slight arrhythmia),"[5]; infused 1, 2 and 4 mg/kg, following last dosage, recording then terminated",≥ 2.5 h
same,incidence of abnormal beats,"[5]; infused 1, 2 and 4 mg/kg, for 2.5 hours following the last dosage",zero
same,anti-arrhythmic effects on resumption of recording,"[5]; infused 1, 2 and 4 mg/kg, recording resumed 215 minutes later",significant anti-arrhythmic effects are still exhibited
same,abnormal beats during occasional brief periods of slight arrhythmia,"[5]; infused 1, 2 and 4 mg/kg, within 2.5 hours following the last dosage",2-5%
same,time after last infusion to zero ectopic beats (100 percent normal beats),"[5]; iv 1, 2, 2 and 2 mg/kg",≤ 10 min
same,persistence of lower heartbeat rate and low incidence of abnormal beats,"[5]; iv 1, 2, 2 and 2 mg/kg, following last infusion, experiment terminated at that time",≥ 2 h
same,heartbeat rate,"[5]; iv 1, 2, 2 and 2 mg/kg, following last infusion, over 160 beats per minute prior to first infusion, in beats/min",90-100
same,incidence of ectopic beats (percent abnormal beats per minute),"[5]; iv 1, 2, 2 and 2 mg/kg, following last infusion, pre-treatment 100 percent",below 60%
same,incidence of ectopic beats,"[5]; iv 1, 2, 2 and 2 mg/kg, within about 10 minutes after the last infusion",zero
same,change in percentage of abnormal beats per minute,[5]; [7],concomitant decrease
same,heart beat rate change,[5]; [7],marked decrease
same,antiarrhythmic effects of the second and third doses,"[5]; oral 30, 30 and 50 mg/kg",further and more consistent antiarrhythmic effects
same,time after last dose to periods with less than 10 percent abnormal beats,"[5]; oral 30, 30 and 50 mg/kg",about 25 minutes
same,abnormal beats (periods in electrocardiogram),"[5]; oral 30, 30 and 50 mg/kg, beginning about 25 minutes after last dose, interspersed with occasional arrhythmia",less than 10%
same,time after last dose over which antiarrhythmic effects continue to be observed,"[5]; oral 30, 30 and 50 mg/kg, recording then terminated",≥ 140 min
same,time after first dosage to periods of reduced frequency of abnormal heart beats,"[5]; oral gelatin capsules, 30, 30 and 50 mg/kg over 150 minutes",10 min
same,oral absorption,[6],indicate oral absorption
